Laboratory results reported in patent US11013751B2, “Compositions and methods for treating multiple sclerosis” (Vitalis LLC, priority 2017, dated 2021).

Experiments:
[1] = pretreatment with 325 mg aspirin for 4 days before DMF; cited from earlier work
[2] = Comparative bioavailability study, monomethyl fumarate plasma pharmacokinetics, single dose, fasting; type: in vivo, human; details: Treatment A over Treatment B normalized to 180 mg DMF
Experimental: This was a single center, pilot, comparative bioavailability, open-label, randomized, single-dose, 2-period, 2-sequence, crossover study under fasting conditions. A total of 12 healthy adult male or female volunteers were included in this pilot study. For each period, subjects will be confined from at least 10 hours before dosing until 12 hours post-dose. There were a washout of 7 days or more between doses. The washout period could be increased for logistical considerations. Participation of each subject in this study lasted approximately 9 days.
The delayed-release capsule were placed on the subject's tongue. Subjects were instructed to suck the delayed-release capsule until the acetylsalicylic acid coating was dissolved or up to a maximum of 1 minute after the delayed-release capsule had been placed on the subject's tongue. The delayed-release capsule should not be chewed, bitten, or swallowed during that 1 minute period or until the coating is dissolved; only the saliva could be swallowed. The subject was instructed to give a hand sign once the acetylsalicylic acid coating was dissolved (the capsule should feel and taste different). Thereafter, or up to a maximum of 1 minute after the delayed-release capsule was placed on the subject's tongue, 240 mL of water was given to subjects to swallow the capsule. Time of dosing was set to the time the capsule was placed on the tongue. […]

Cmax Change % (A over B) [2]: did not have significant impact
Structure (SMILES): CC(=O)Oc1ccccc1C(=O)O [aspirin, acetylsalicylic acid]
flushing incidence and intensity [1]: reduced
gastrointestinal events [1]: did not affect
pharmacokinetic profile of DMF [1]: did not affect
